Assay results from patent US20210395217A1, “PESTICIDALLY ACTIVE AZOLE-AMIDE COMPOUNDS” (SYNGENTA PARTICIPATIONS AG, priority 2018, published 2021).

Tests used:
Assay type in all cases: in vivo
Diabrotica balteata = experiment: Example B1: Diabrotica balteata (corn root worm), maize sprouts sprayed, L2 larvae; conditions: 96 h, application rate of 200 ppm, 4 days after infestation, read-out: control in at least one of the two categories (mortality or growth inhibition)
Description: Example B1: Diabrotica balteata (Corn Root Worm)
Maize sprouts placed onto an agar layer in 24-well microtiter plates were treated with aqueous test solutions prepared from 10′000 ppm DMSO stock solutions by spraying. After drying, the plates were infested with L2 larvae (6 to 10 per well). The samples were assessed for mortality and growth inhibition in comparison to untreated samples 4 days after infestation.
The following compounds gave an effect of at least 80% control in at least one of the two categories (mortality or growth inhibition) at an application rate of 200 ppm: […]

Euschistus heros = experiment: Example B2: Euschistus heros (neotropical brown stink bug), soybean leaves sprayed, N2 nymphs; conditions: 120 h, application rate of 200 ppm, 5 days after infestation, read-out: control in at least one of the two categories (mortality or growth inhibition)
Description: Example B2: Euschistus heros (Neotropical Brown Stink Bug)
Soybean leaves on agar in 24-well microtiter plates were sprayed with aqueous test solutions prepared from 10′000 ppm DMSO stock solutions. After drying the leaves were infested with N2 nymphs. The samples were assessed for mortality and growth inhibition in comparison to untreated samples 5 days after infestation.
The following compounds gave an effect of at least 80% control in at least one of the two categories (mortality or growth inhibition) at an application rate of 200 ppm: F2, F4, F6, F8, F12, F16.

Chilo suppressalis = experiment: Example B3: Chilo suppressalis (striped rice stem borer), artificial diet, L2 larvae; conditions: 144 h, application rate of 200 ppm, 6 days after infestation, read-out: control in at least one of the three categories (mortality, anti-feedant effect, or growth inhibition)
Description: Example B3: Chilo suppressalis (Striped Rice Stem Borer)
24-well microtiter plates with artificial diet were treated with aqueous test solutions prepared from 10′000 ppm DMSO stock solutions by pipetting. After drying, the plates were infested with L2 larvae (6-8 per well). The samples were assessed for mortality, anti-feeding effect, and growth inhibition in comparison to untreated samples 6 days after infestation. Control of Chilo suppressalis by a test sample is given when at least one of the categories mortality, anti-feedant effect, and growth inhibition is higher than the untreated sample.

Plutella xylostella [1] = experiment: Example B4: Plutella xylostella (diamond back moth), artificial diet, 24-well, eggs; conditions: 192 h, application rate of 200 ppm, 8 days after infestation, 24-well plates, read-out: control in at least one of the two categories (mortality or growth inhibition)
Description: Example B4: Plutella xylostella (Diamond Back Moth)
24-well microtiter plates with artificial diet were treated with aqueous test solutions prepared from 10′000 ppm DMSO stock solutions by pipetting. After drying, Plutella eggs were pipetted through a plastic stencil onto a gel blotting paper and the plate was closed with it. The samples were assessed for mortality and growth inhibition in comparison to untreated samples 8 days after infestation. The following compounds gave an effect of at least 80% control in at least one of the two categories (mortality or growth inhibition) at an application rate of 200 ppm: […]

Myzus persicae [2] = experiment: Example B6: Myzus persicae (green peach aphid), intrinsic activity, sucrose solution, 24-well; conditions: 120 h, test rate of 12 ppm, 5 days after infestation
Description: Example B6: Myzus Persicae (Green Peach Aphid): Intrinsic Activity
Test compounds prepared from 10′000 ppm DMSO stock solutions were applied by pipette into 24-well microtiter plates and mixed with sucrose solution. The plates were closed with a stretched Parafilm. A plastic stencil with 24 holes was placed onto the plate and infested pea seedlings were placed directly on the Parafilm. The infested plate was closed with a gel blotting paper and another plastic stencil and then turned upside down. The samples were assessed for mortality 5 days after infestation.

Spodoptera littoralis [3] = experiment: Example B7: Spodoptera littoralis (Egyptian cotton leaf worm), cotton leaf discs sprayed, L1 larvae; conditions: foliar, 72 h, application rate of 200 ppm, 3 days after infestation, read-out: control in at least one of the three categories (mortality, anti-feedant effect, or growth inhibition)
Description: Example B7: Spodoptera littoralis (Egyptian Cotton Leaf Worm)
Cotton leaf discs were placed onto agar in 24-well microtiter plates and sprayed with aqueous test solutions prepared from 10′000 ppm DMSO stock solutions. After drying the leaf discs were infested with five L1 larvae. The samples were assessed for mortality, anti-feeding effect, and growth inhibition in comparison to untreated samples 3 days after infestation. Control of Spodoptera littoralis by a test sample is given when at least one of the categories mortality, anti-feedant effect, and growth inhibition is higher than the untreated sample.

Spodoptera littoralis [4] = experiment: Example B8: Spodoptera littoralis (Egyptian cotton leaf worm), uptake by lettuce roots from agar, eggs; conditions: 144 h, test rate of 12.5 ppm, 6 days after infestation, compound absorbed by lettuce roots, read-out: control in at least one of the three categories (mortality, anti-feeding, or growth inhibition)
Description: Example B8: Spodoptera Littoralis (Egyptian Cotton Leaf Worm)
Test compounds were applied by pipette from 10′000 ppm DMSO stock solutions into 24-well plates and mixed with agar. Lettuce seeds were placed onto the agar and the multi well plate was closed by another plate which contained also agar. After 7 days the compound was absorbed by the roots and the lettuce grew into the lid plate. The lettuce leaves were then cut off into the lid plate. Spodoptera eggs were pipetted through a plastic stencil onto a humid gel blotting paper and the lid plate was closed with it. The samples were assessed for mortality, anti-feedant effect and growth inhibition in comparison to untreated samples 6 days after infestation.
The following compounds gave an effect of at least 80% control in at least one of the three categories (mortality, anti-feeding, or growth inhibition) at a test rate of 12.5 ppm: […]

Myzus persicae [5] = experiment: Example B9: Myzus persicae (green peach aphid), sucrose solution, 96-well; conditions: 120 h, application rate of 50 ppm, 5 days after infestation, 96-well plates
Description: Example B9: Myzus persicae (Green Peach Aphid)
Test compounds prepared from 10′000 ppm DMSO stock solutions were applied by a liquid handling robot into 96-well microtiter plates and mixed with a sucrose solution. Parafilm was stretched over the 96-well microtiter plate and a plastic stencil with 96 holes was placed onto the plate. Aphids were sieved into the wells directly onto the Parafilm. The infested plates were closed with a gel blotting card and a second plastic stencil and then turned upside down. The samples were assessed for mortality 5 days after infestation.

Plutella xylostella [6] = experiment: Example B10: Plutella xylostella (diamondback moth), artificial diet, 96-well, eggs; conditions: 216 h, application rate of 500 ppm, 9 days after infestation, 96-well plates
Description: Example B10: Plutella xylostella (Diamondback Moth)
96-well microtiter plates containing artificial diet were treated with aqueous test solutions, prepared from 10′000 ppm DMSO stock solutions, by a liquid handling robot. After drying, eggs (˜30 per well) were infested onto a netted lid which was suspended above the diet. The eggs hatch and L1 larvae move down to the diet. The samples were assessed for mortality 9 days after infestation.
The following compounds gave an effect of at least 80% average mortality at an application rate of 500 ppm: […]

Myzus persicae [7] = experiment: Example B5: Myzus persicae (green peach aphid), feeding/contact activity, sunflower leaf discs; conditions: foliar, 144 h, application rate of 200 ppm, 6 days after infestation
Description: Example B5: Myzus persicae (Green Peach Aphid): Feeding/Contact Activity
Sunflower leaf discs were placed onto agar in a 24-well microtiter plate and sprayed with aqueous test solutions prepared from 10′000 ppm DMSO stock solutions. After drying, the leaf discs were infested with an aphid population of mixed ages. The samples were assessed for mortality 6 days after infestation.

CC(c1ncnn1-c1ccc(C#N)cn1)N(C)C(=O)c1cc(C(F)(F)F)cc(C(F)(F)F)c1 (centres unmarked) [Compound F2, N-[1-[2-(5-cyano-2-pyridyl)-1,2,4-triazol-3-yl]ethyl]-N-methyl-3,5-bis(trifluoromethyl) benzamide]
≥ 80%: percent control (mortality or growth inhibition) at 200 ppm (Diabrotica balteata) | percent control (mortality or growth inhibition) at 200 ppm (Euschistus heros) | percent control (mortality, anti-feedant effect or growth inhibition) at 200 ppm (Chilo suppressalis) | percent control (mortality or growth inhibition) at 200 ppm (Plutella xylostella [1]) | mortality at 12 ppm (Myzus persicae [2]) | percent control (mortality, anti-feedant effect or growth inhibition) at 200 ppm (Spodoptera littoralis [3]) | percent control (mortality, anti-feeding or growth inhibition) at 12.5 ppm (Spodoptera littoralis [4]) | mortality at 50 ppm (Myzus persicae [5]) | mortality at 500 ppm (Plutella xylostella [6])

CC(c1ncnn1-c1ncc(C#N)cn1)N(CC1CC1)C(=O)c1cc(C(F)(F)F)cc(C(F)(F)F)c1 (centres unmarked) [Compound F4, N-[1-[2-(5-cyanopyrimidin-2-yl)-1,2,4-triazol-3-yl]ethyl]-N-(cyclopropylmethyl)-3,5-bis(trifluoromethyl) benzamide]
≥ 80%: percent control (mortality or growth inhibition) at 200 ppm (Diabrotica balteata) | percent control (mortality or growth inhibition) at 200 ppm (Euschistus heros) | percent control (mortality, anti-feedant effect or growth inhibition) at 200 ppm (Spodoptera littoralis [3])

Cc1nc(C(C)NC(=O)c2cc(OC(F)F)cc(C(F)(F)F)c2)n(-c2ccc(C#N)cn2)n1 (centres unmarked) [Compound F6, N-[1-[2-(5-cyano-2-pyridyl)-5-methyl-1,2,4-triazol-3-yl]ethyl]-3-(difluoromethoxy)-5-(trifluoromethyl) benzamide]
≥ 80%: percent control (mortality or growth inhibition) at 200 ppm (Diabrotica balteata) | percent control (mortality or growth inhibition) at 200 ppm (Euschistus heros) | percent control (mortality or growth inhibition) at 200 ppm (Plutella xylostella [1]) | mortality at 12 ppm (Myzus persicae [2]) | percent control (mortality, anti-feedant effect or growth inhibition) at 200 ppm (Spodoptera littoralis [3]) | mortality at 50 ppm (Myzus persicae [5])

Cc1nc(C(C)NC(=O)c2cc(Br)cc(C(F)(F)F)c2)n(-c2ccc(C#N)cn2)n1 (centres unmarked) [Compound F8, 3-bromo-N-[1-[2-(5-cyano-2-pyridyl)-5-methyl-1,2,4-triazol-3-yl]ethyl]-5-(trifluoromethyl) benzamide]
≥ 80%: percent control (mortality or growth inhibition) at 200 ppm (Diabrotica balteata) | percent control (mortality or growth inhibition) at 200 ppm (Euschistus heros) | percent control (mortality or growth inhibition) at 200 ppm (Plutella xylostella [1]) | mortality at 12 ppm (Myzus persicae [2]) | percent control (mortality, anti-feedant effect or growth inhibition) at 200 ppm (Spodoptera littoralis [3]) | mortality at 50 ppm (Myzus persicae [5])

Cc1nc(C(C)NC(=O)c2cc(C(F)F)cc(C(F)(F)F)c2)n(-c2ccc(C#N)cn2)n1 (centres unmarked) [Compound F9, N-[1-[2-(5-cyano-2-pyridyl)-5-methyl-1,2,4-triazol-3-yl]ethyl]-3-(difluoromethyl)-5-(trifluoromethyl) benzamide]
≥ 80%: percent control (mortality or growth inhibition) at 200 ppm (Diabrotica balteata) | percent control (mortality, anti-feedant effect or growth inhibition) at 200 ppm (Chilo suppressalis) | percent control (mortality or growth inhibition) at 200 ppm (Plutella xylostella [1]) | mortality at 12 ppm (Myzus persicae [2]) | percent control (mortality, anti-feedant effect or growth inhibition) at 200 ppm (Spodoptera littoralis [3]) | mortality at 50 ppm (Myzus persicae [5])

CC(NC(=O)c1cc(SC(F)(F)F)cc(C(F)(F)F)c1)c1nc(C2CC2)nn1-c1ccc(C#N)cn1 (centres unmarked) [Compound F12, N-[1-[2-(5-cyano-2-pyridyl)-5-cyclopropyl-1,2,4-triazol-3-yl]ethyl]-3-(trifluoromethyl)-5-(trifluoromethylsulfanyl) benzamide]
≥ 80%: percent control (mortality or growth inhibition) at 200 ppm (Diabrotica balteata) | percent control (mortality or growth inhibition) at 200 ppm (Euschistus heros) | percent control (mortality, anti-feedant effect or growth inhibition) at 200 ppm (Chilo suppressalis) | percent control (mortality or growth inhibition) at 200 ppm (Plutella xylostella [1]) | percent control (mortality, anti-feedant effect or growth inhibition) at 200 ppm (Spodoptera littoralis [3]) | mortality at 500 ppm (Plutella xylostella [6])

Cc1nc(C(C)N(C)C(=O)c2cc(C(F)(F)F)cc(C(F)(F)F)c2)n(-c2ccc(C#N)cn2)n1 (centres unmarked) [Compound F16, N-[1-[2-(5-cyano-2-pyridyl)-5-methyl-1,2,4-triazol-3-yl]ethyl]-N-methyl-3,5-bis(trifluoromethyl) benzamide]
≥ 80%: percent control (mortality or growth inhibition) at 200 ppm (Diabrotica balteata) | percent control (mortality or growth inhibition) at 200 ppm (Euschistus heros) | percent control (mortality, anti-feedant effect or growth inhibition) at 200 ppm (Chilo suppressalis) | percent control (mortality or growth inhibition) at 200 ppm (Plutella xylostella [1]) | mortality at 200 ppm (Myzus persicae [7]) | mortality at 12 ppm (Myzus persicae [2]) | percent control (mortality, anti-feedant effect or growth inhibition) at 200 ppm (Spodoptera littoralis [3]) | mortality at 50 ppm (Myzus persicae [5])
